Measurements as given in ChEMBL document CHEMBL1122481, “Substituted (2-phenoxyphenyl)acetic acids with antiinflammatory activity. 2” (J Med Chem, 1983).

How the values were obtained:
Rattus norvegicus [1] = test: Antiinflammatory activity in rats, at a dose of 10 mg/kg po(significant toxicity at 100 mg/kg), by adjuvant-induced arthritis test; format: functional
Rattus norvegicus [2] = species on record: Rattus norvegicus; test: Potency measured relative to that of fenclofenac; format: functional
Rattus norvegicus [3] = test: Antiinflammatory activity in rats, at a dose of 10 mg/kg po(significant toxicity at 100 mg/kg), activity expressed as minimum ulcerogenic dose(MUD) for a period of 24 hr; Value ranges from (200-400); format: functional
[4] = Median lethal dose using 10 rats per dose.; format: ADME, organism-based; conditions: rat, in vivo
Rattus norvegicus [5] = test: Antiinflammatory activity in rats, at a dose of 2 mg/kg po, using adjuvant-induced as arthritis test; format: functional
Rattus norvegicus [6] = test: Antiinflammatory activity in rats, at a dose of 10 mg/kg po(showed some toxicity at this dose level), using adjuvant-induced arthritis test; format: functional
Rattus norvegicus [7] = species on record: Rattus norvegicus; test: Potency measured relative to that of fenclofenac.; format: functional
Rattus norvegicus [8] = test: Antiinflammatory activity in rats, at a dose of 10 mg/kg po, activity expressed as minimum ulcerogenic dose(MUD) for a period of 24 hr; Value ranges from (100-200); format: functional
Rattus norvegicus [9] = test: Antiinflammatory activity in rats, at a dose of 0.08 mg/kg po, using adjuvant-induced arthritis test; format: functional
Rattus norvegicus [10] = test: Antiinflammatory activity in rats, at a dose of 100 mg/kg po, activity expressed as minimum ulcerogenic dose(MUD) for a period of 24 hr; Value ranges from (400-800); format: functional
Rattus norvegicus [11] = test: Antiinflammatory activity in rats, at a dose of 100 mg/kg po, using adjuvant-induced arthritis test; format: functional
Rattus norvegicus [12] = species on record: Rattus norvegicus; test: Antiinflammatory activity in rats, activity expressed as minimum ulcerogenic dose(MUD) for a period of 24 hr.; format: functional

SMILES: O=C(O)Cc1ccccc1Oc1c(Cl)ccc(Cl)c1Cl
- Inhibition (Rattus norvegicus [1]): 51%
- Relative potency (Rattus norvegicus [2]): 14
- MUD (Rattus norvegicus [3]): 400 mg/kg

SMILES: O=C(O)Cc1ccccc1Oc1c(Cl)c(Cl)cc(Cl)c1Cl
- LD50 [4]: 303 mg/kg
- inhibition in vivo at 2 mg/kg (Rattus norvegicus [5]): 38%
- inhibition in vivo at 10 mg/kg (Rattus norvegicus [6]): 44%
- Relative potency (Rattus norvegicus [7]): 40
- MUD (Rattus norvegicus [8]): 200 mg/kg

SMILES: O=C(O)Cc1ccccc1Nc1c(Cl)c(Cl)cc(Cl)c1Cl
- inhibition in vivo at 0.08 mg/kg (Rattus norvegicus [9]): 18%

SMILES: O=C(O)Cc1ccccc1Sc1c(Cl)c(Cl)cc(Cl)c1Cl
- Relative potency (Rattus norvegicus [2]): 0.21
- inhibition in vivo at 0.08 mg/kg (Rattus norvegicus [9]): < 22%

SMILES: O=C(O)Cc1ccccc1Oc1c(Cl)cc(Cl)c(Cl)c1Cl
- Inhibition (Rattus norvegicus [1]): 43%
- Relative potency (Rattus norvegicus [2]): 8

SMILES: O=C(O)Cc1ccccc1Oc1cc(Cl)cc(Cl)c1Cl
- Inhibition (Rattus norvegicus [1]): 21%
- Relative potency (Rattus norvegicus [2]): 1.5

SMILES: O=C(O)Cc1ccccc1[S+]([O-])c1c(Cl)c(Cl)cc(Cl)c1Cl (stereo unspecified)
- inhibition in vivo at 0.08 mg/kg (Rattus norvegicus [9]): 19%

SMILES: O=C(O)Cc1ccccc1Oc1ccc(Cl)cc1Cl [FENCLOFENAC]
- MUD (Rattus norvegicus [10]): 800 mg/kg
- inhibition in vivo at 100 mg/kg (Rattus norvegicus [11]): 35%
- Relative potency (Rattus norvegicus [7]): 1

SMILES: COc1ccc2c(c1)c(CC(=O)O)c(C)n2C(=O)c1ccc(Cl)cc1 [INDOMETHACIN]
- MUD (Rattus norvegicus [12]): 1.25 mg/kg
- LD50 [4]: 19.8 mg/kg
